The text below walks through data of patent publication US8697385B1, “Protein controlling synthesis of collagen and associated methods” (Florida State University Research Foundation, Inc., priority 2009, dated 2014).

The test system of the test is polysomes. In words: Fractionation of polysomes on sucrose gradients. The format is cell-based, human. The procedure: ML-7, blebbistatin, cytochalasin B, puromycin, and cycloheximide were purchased from Sigma. ML-7 was used at 40 μM, blebbistatin was used at 100 μM, and cytochalasin B was used at 20 μM. Cells were incubated with the drugs for 16 h before analysis. Puromycin (200 μg/ml) and cycloheximide (100 μg/ml) were added to the cells for 2 h. Human lung fibroblasts have been described previously.16 Scleroderma fibroblasts were purchased from the European Collection of Cell Cultures (cell line BM0070) and derived from the skin of a scleroderma patient. MEFs were derived from knock-in mice in which the 5′SL of the collagen α1(I) gene has been mutated (Parsons et al., submitted). Several independent cell isolates were used throughout the study. All cells were cultured in Dulbecco's modified Eagle's medium supplemented with 10% fetal bovine serum for up to 10 passages. Plasmid constructs and adenovirus preparation. The HA-tagged LARP6 clone and the deletion mutants have been described previously.^16 Adenoviruses were constructed by recloning of the constructs into the pAdCMVTRACK vector, followed by recombination with the pAdEasy vector and amplification, as described previously.^48 Expression of each construct was verified by Western blot analysis. The viruses made express both the full-size test protein and the green fluorescent protein (GFP), which is encoded by an independent transcription unit.^48 Expression of GFP served as control for viral transduction. RT-PCR analysis Total cellular RNA was isolated using an RNA isolation kit (Sigma). RT-PCRs were performed with 100 ng of total RNA or using rTth reverse transcriptase (Boca Scientific, Boca Raton, Fla.). [^32P]dCTP was included in the PCR step to label the products, which were resolved on sequencing gels, as described previously.^8,31,49,50 When RNA from polysomal fractions was analyzed, an equal aliquot of each fraction was used. The number of cycles was adjusted to within the linear range of the reaction. The primers used for RT-PCR were as follows: h-collagen α1(I), 5′ primer […] (SEQ ID NO:3) and 3′ primer […] (SEQ ID NO:4); h-collagen α2(I), 5′ primer […] (SEQ ID NO:5) and 3′ primer […] (SEQ ID NO:6).
Polysomes were fractionated as described previously.^16 Sucrose fractions (0.5 ml) were collected, and total RNA was extracted by phenol/chloroform and isopropanol precipitation. Equivalent amounts of each fraction were analyzed by RT-PCR. Total proteins were extracted from sucrose fractions by trichloroacetic acid precipitation, and equivalent amounts were analyzed by Western blot analysis.
One of the roles of nonmuscle myosin filaments may be to present collagen mRNAs to ribosomes. Therefore, we assessed if the association of collagen mRNAs with nonmuscle myosin is dependent on intact polysomes. […] Only the anti-myosin antibody immunoprecipitated collagen α1(I) and α2(I) mRNAs (lane 1). We then immunoprecipitated nonmuscle myosin from lung fibroblasts treated with cycloheximide or puromycin and analyzed if this can change the pull-down of collagen mRNAs. As control, the association with vimentin was analyzed in the same samples (FIG. 9b). […] The association of collagen mRNAs with vimentin increased after the dissociation of polysomes (lanes 3 and 4). […] To assess if nonmuscle myosin copurifies with polysomes, we fractionated polysomes on sucrose gradients^16 and analyzed for the presence of nonmuscle myosin in the fractions using Western blot analysis (FIG. 9f). […]

Turning to `O=S(=O)(c1cccc2c(I)cccc12)N1CCCNCC1` [ML-7], where the note is “15-45% sucrose gradient, Western blot, puromycin or ML-7 treatment”, the “nonmuscle myosin in polysomal fractions” value is on record as “decrease in the amount of nonmuscle myosin in the heaviest fractions”. Further, where the note is “ML-7-treated vs control cells, RT-PCR of fractions”, the “distribution of collagen α1(I) and α2(I) mRNAs in polysomal fractions” value was “a small fraction of collagen α1(I) and α2(I) mRNAs were shifted into nonpolysomal fractions 16 and 17”. Where the note is “ML-7 treatment”, the “overall distribution of polysomes” value is given as “did not have an effect”. Also, the “total level of collagen α1(I) and α2(I) mRNAs” value (ML-7 treatment, RT-PCR, sum of all fractions) is “not significantly affected”.
